The IC50 is the concentration at which inhibition is half-maximal. A lower IC50 goes with inhibition by little substance.

Structures are written as SMILES.

Experimental findings from patent publication US10399987B2, “TGF beta receptor antagonists” (BRISTOL-MYERS SQUIBB COMPANY, priority 2015, dated 2019) are described below.

The target in this experiment is HIS-TGFβR1 T204D (Homo sapiens (Human), UniProt P36897, T204D). The experiment is described as follows: TGFβR1 HIS T204D HTRF assay (labeled small molecule probe, anti-HIS detection antibody). The format is binding. The following applies: 1 nM HIS-TGFβR1 T204D, probe at Kd, 1 hour at room temperature, eleven concentrations. (Time-resolved FRET reads energy transfer from a long-lived donor to a nearby acceptor.)
HIS-TGFβR1 T204D, sequence (P36897 34-503 T204D): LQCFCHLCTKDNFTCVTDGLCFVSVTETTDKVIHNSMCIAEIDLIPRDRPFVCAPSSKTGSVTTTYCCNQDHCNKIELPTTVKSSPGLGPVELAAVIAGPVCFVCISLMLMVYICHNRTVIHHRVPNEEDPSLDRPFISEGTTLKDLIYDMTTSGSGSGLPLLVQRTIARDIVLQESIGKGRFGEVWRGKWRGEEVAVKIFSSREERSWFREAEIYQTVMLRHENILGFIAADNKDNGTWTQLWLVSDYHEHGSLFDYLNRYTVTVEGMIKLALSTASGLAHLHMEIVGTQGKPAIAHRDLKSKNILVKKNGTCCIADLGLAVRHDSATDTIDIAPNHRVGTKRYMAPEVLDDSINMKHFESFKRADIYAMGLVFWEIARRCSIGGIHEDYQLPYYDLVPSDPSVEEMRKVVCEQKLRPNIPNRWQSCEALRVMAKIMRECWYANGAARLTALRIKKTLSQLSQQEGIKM

With `CC(=O)Nc1cc(Nc2nc(-c3ccc(F)c(C)n3)nc3[nH]ccc23)c(F)cn1` [Example 18, N-(5-fluoro-4-((2-(5-fluoro-6-methylpyridin-2-yl)-7H-pyrrolo[2,3-d]pyrimidin-4-yl)amino)pyridin-2-yl)acetamide], the IC50 came out at 1.3 nM.
In turn, `CC(=O)Nc1cc(Nc2nc(-c3cccc(C(F)F)n3)nc3[nH]ccc23)ccn1` [Example 3, N-(4-((2-(6-(difluoromethyl)pyridin-2-yl)-7H-pyrrolo[2,3-d]pyrimidin-4-yl)amino)pyridin-2-yl)acetamide] had an IC50 of 0.78 nM.
In the case of `Cc1nc(-c2nc(Nc3ccncc3F)c3cc[nH]c3n2)ccc1F` [Example 11, 2-(5-fluoro-6-methylpyridin-2-yl)-N-(3-fluoropyridin-4-yl)-7H-pyrrolo[2,3-d]pyrimidin-4-amine] it was 0.6 nM; in that of `Cc1c[nH]c2nc(-c3cccc(C(F)(F)F)n3)nc(Nc3ccncc3F)c12` [Example 34, N-(3-fluoropyridin-4-yl)-5-methyl-2-(6-(trifluoromethyl)pyridin-2-yl)-7H-pyrrolo[2,3-d]pyrimidin-4-amine], 4.5 nM.
In the case of `Cc1nc(-c2nc(Nc3ccnc(NC(=O)C4CC4)c3)c3cc[nH]c3n2)ccc1F` [Example 47, N-(4-{[2-(5-fluoro-6-methylpyridin-2-yl)-7H-pyrrolo[2,3-d]pyrimidin-4-yl]amino}pyridin-2-yl)cyclopropanecarboxamide] it was 1.4 nM; in that of `COC(=O)Nc1cc(Nc2nc(-c3cccc(C(F)F)n3)nc3[nH]ccc23)ccn1` [Example 17, methyl (4-((2-(6-(difluoromethyl)pyridin-2-yl)-7H-pyrrolo[2,3-d]pyrimidin-4-yl)amino)pyridin-2-yl)carbamate], 0.76 nM; in that of `O=C(CN1CCOCC1)Nc1cc(Nc2nc(-c3cccc(C(F)(F)F)n3)nc3[nH]ccc23)ccn1` [Example 32, 2-morpholino-N-(4-((2-(6-(trifluoromethyl)pyridin-2-yl)-7H-pyrrol[2,3-d]pyrimidin-4-yl)amino)pyridin-2-yl)acetamide], 0.77 nM.
Consider `CC(=O)Nc1cc(Nc2nc(-c3cccc(C(F)F)n3)nc3[nH]cc(C)c23)ccn1` [Example 25, N-(4-((2-(6-(difluoromethyl)pyridin-2-yl)-5-methyl-7H-pyrrolo[2,3-d]pyrimidin-4-yl)amino)pyridin-2-yl)acetamide], for which the IC50 is 1.5 nM.
In the case of `CN(c1ccncc1)c1nc(-c2cccc(C(F)(F)F)n2)nc2[nH]ccc12` [Example 38, N-methyl-N-{2-[6-(trifluoromethyl)pyridin-2-yl]-7H-pyrrolo[2,3-d]pyrimidin-4-yl}pyridin-4-amine], the IC50 turned out to be 0.59 nM. This IC50 lies about 2.5-fold lower than the previous one.
On to `CC(=O)Nc1nccc(Nc2nc(-c3cccc(C(F)F)n3)nc3[nH]ccc23)c1F` [Example 31, N-(4-((2-(6-(difluoromethyl)pyridin-2-yl)-7H-pyrrolo[2,3-d]pyrimidin-4-yl)amino)-3-fluoropyridin-2-yl)acetamide], for which it took 0.37 nM to reach half-maximal inhibition (IC50).
`O=C1CCCN1c1cc(Nc2nc(-c3cccc(C(F)F)n3)nc3[nH]ccc23)ccn1` [Example 19, 1-(4-((2-(6-(difluoromethyl)pyridin-2-yl)-7H-pyrrolo[2,3-d]pyrimidin-4-yl)amino)pyridin-2-yl)pyrrolidin-2-one] had an IC50 of 5.8 nM.
